{"source": "patent US9637738B2", "about": "“Methods and agents to increase therapeutic dystrophin expression in muscle” (Reveragen Biopharma, Inc., priority 2013, dated 2017)", "key": {"[1]": {"system": "miR-223", "test": "qRT-PCR of miR-223 in gastrocnemius of drug-treated mdx23 mice", "assay_type": "in vivo, mouse", "conditions": "5 mg/kg prednisolone or 15 mg/kg VBP-15", "protocol": "(§1) FIG. 8—Treatment with anti-inflammatories modulates dystrophin-targeting microRNAs. (a) VBP15 and prednisolone reduces dystrophin-targeting microRNA levels; miR-146a, miR-146b and miR-223 levels in the gastrocnemius of wild-type mice and vehicle, prednisolone, or […] mdx23 mice were assessed via qPCR; results were normalized to wild-type levels. […] All statistical analyses were performed in Prism Graph Pad 5.0, One-Way ANOVA with Bonferroni post-test (*p<0.05; **p<0.01).\n(§2) 20 mg frozen muscle was homogenized in TriZol reagent (Invitrogen), followed by RNA extraction. microRNAs were quantified with 7900HT Fast Real-Time PCR system using mouse-specific TaqMan microRNA assays with U6 snRNA as a control. Results were calculated as above using the 2(−ΔΔC(T)) method (Schmittgen, 2001).\n(§3) Mdx23 (C57BL/10ScSn-Dmd/J) mice (The Jackson laboratories) were dosed with 5 mg/kg prednisolone or 15 mg/kg […] as previously reported (Heier et al, 2013).\n(§4) Exon skipping therapies in DMD will likely be used in combination with either current glucocorticoid standards of care, or next-generation steroid derivatives moving towards clinical use (Heier et al 2012). Because these drugs affect transcriptional regulation and/or inflammatory miRNA signaling, we tested what their effects on levels of dystrophin-regulating miRNAs might be."}, "[2]": {"system": "miR-146b", "test": "qRT-PCR of miR-146b in gastrocnemius of drug-treated mdx23 mice", "assay_type": "in vivo, mouse", "conditions": "5 mg/kg prednisolone or 15 mg/kg VBP-15", "protocol": "as §1, §2, §3, §4"}, "[3]": {"system": "miR-146a", "test": "qRT-PCR of miR-146a in gastrocnemius of drug-treated mdx23 mice", "assay_type": "in vivo, mouse", "conditions": "5 mg/kg prednisolone or 15 mg/kg VBP-15, p<0.01", "protocol": "as §1, §2, §3, §4"}, "[4]": {"system": "miR-320a", "test": "qRT-PCR of miR-320a in gastrocnemius of drug-treated mdx23 mice", "assay_type": "in vivo, mouse", "conditions": "5 mg/kg prednisolone or 15 mg/kg VBP-15, p=0.22 for prednisone", "protocol": "as §1, §2, §3, §4"}, "[5]": {"system": "miR-382", "test": "qRT-PCR of miR-382 in gastrocnemius of drug-treated mdx23 mice", "assay_type": "in vivo, mouse", "conditions": "5 mg/kg prednisolone or 15 mg/kg VBP-15, p<0.05 for prednisone", "protocol": "as §1, §2, §3, §4"}, "[6]": {"system": "dystrophin protein", "test": "Systemic delivery of PMO to mdx23 mice, dystrophin rescue by SILAM mass spectrometry and immunoblot", "assay_type": "in vivo, mouse", "conditions": "single 800 mg/kg intravenous injection, 1 month post-injection, SILAM mass spectrometry", "protocol": "FIG. 7—Dystrophin-regulating microRNAs levels promote observed variability of dystrophin protein production in PMO-treated mdx mice. (a) Dystrophin levels were analyzed via mass spec and miRNA levels were assessed in the diaphragm, TA and Gastroc. […] All statistical analyses were performed in Prism Graph Pad 5.0, One-Way ANOVA with Bonferroni post-test (*p<0.05; **p<0.01; ***p<0.001). (b) The tricep, TA and gastroc in 3 PMO-treated mice were chosen for analysis. Dystrophin levels were analyzed via mass spec and microRNA levels were analyzed via qPCR. For analysis, Each miRNA's values were grouped by muscle, mean and SD were calculated. The deviation from the appropriate mean was calculated for each individual miRNA value. These deviations were assigned a score of low, mid or high, defined by the following rule: those falling within 0.5 SD of the mean were assigned a “mid” score, those greater than 0.5 SD of the mean were assigned a “high score”, and those less than 0.5 SD of the mean were assigned a “low” score. Mean % dystrophin levels were then compared using an independent t-test. […]\nWe tested whether variable levels of dystrophin-regulating microRNAs in muscle […] of dystrophin rescue by exon skipping. […] From one mouse, adjacent cryosections of the tibialis anterior (TA), gastrocnemius, and diaphragm muscles were analyzed for dystrophin protein content by SILAM mass spectrometry (Brown et al. 2013) and immunoblotting, and for dystrophin-regulating microRNA content by TaqMan (real time PCR) assays (FIG. 7a)."}, "[7]": {"system": "human dystrophin 3′UTR", "test": "Dys 3′UTR luciferase reporter assay in C2C12 myoblasts co-transfected with microRNA mimics", "assay_type": "cell-based, mouse", "conditions": "C2C12 myoblasts co-transfected with 200 ng Dys 3′UTR reporter and 50 nM microRNA mimic, Renilla luciferase normalized to internal control"}}, "note": "“Also recorded” adds a separate entry of the source.", "data": [{"molecule": "C[C@@H]1CC2C3CCC4=CC(=O)C=C[C@]4(C)C3=CC[C@]2(C)[C@@]1(O)C(=O)CO", "note": "(stereo partly drawn) [VBP-15, (10S,13S,16R,17R)-17-hydroxy-17-(2-hydroxyacetyl)-10,13,16-trimethyl-6,7,8,10,12,13,14,15,16,17-decahydro-3H-cyclopenta[a]phenanthren-3-one]", "values": [{"measurement": "miR-223 levels over untreated mice", "setting": "[1]", "result": "trend of decreases"}, {"measurement": "miR-146b levels over untreated mice", "setting": "[2]", "result": "trend of decreases"}, {"measurement": "miR-146a levels over untreated mice", "setting": "[3]", "result": "significantly reduced"}]}, {"molecule": "C[C@]12C=CC(=O)C=C1CC[C@@H]1[C@@H]2[C@@H](O)C[C@@]2(C)[C@H]1CC[C@]2(O)C(=O)CO", "note": "[prednisone, prednisolone]", "values": [{"measurement": "miR-320a levels, increase in treated mice", "setting": "[4]", "result": "increased"}, {"measurement": "miR-223 levels over untreated mice", "setting": "[1]", "result": "trend of decreases"}, {"measurement": "miR-382 levels, increase in treated mice", "setting": "[5]", "result": "increased"}, {"measurement": "miR-146b levels over untreated mice", "setting": "[2]", "result": "trend of decreases"}, {"measurement": "miR-146a levels over untreated mice", "setting": "[3]", "result": "significantly reduced"}]}, {"molecule": "exon 23-targeting morpholino: PMO (Gene Tools): 5′-GGCCAAACCTCGGCTTACCTGAAAT-3′ (SEQ ID NO:33) (all phosphorodiamidate morpholino (PMO); listed as Mus musculus)", "values": [{"measurement": "dystrophin rescue in diaphragm", "setting": "[6]", "result": 5, "unit": "% wild-type levels"}, {"measurement": "dystrophin rescue in gastrocnemius", "setting": "[6]", "result": 5, "unit": "% wild-type levels"}, {"measurement": "dystrophin rescue in tibialis anterior (TA)", "setting": "[6]", "result": 40, "unit": "% wild-type levels"}]}, {"molecule": "miR-146a: microRNA mimic; hsa-miR-146a 3′-UUGGGUACCUUAAGUCAAGAGU-5′ (SEQ ID NO: 1) (listed as RNA, chemistry not given here; listed 3' to 5'; listed as Homo sapiens)", "values": [{"measurement": "luciferase protein expression from Dys 3′UTR reporter", "setting": "[7]", "result": "significantly inhibited"}]}, {"molecule": "miR-146b-5p: microRNA mimic; hsa-miR-146b-5p 3′-UCGGAUACCUUAAGUCAAGAGU-5′ (SEQ ID NO: 3) (listed as RNA, chemistry not given here; listed 3' to 5'; listed as Homo sapiens)", "values": [{"measurement": "luciferase protein expression from Dys 3′UTR reporter", "setting": "[7]", "result": "significantly inhibited"}, {"measurement": "luciferase protein expression from Dys 3′UTR reporter", "setting": "[7]; listed as miR-146b", "result": "most potent downregulation; also recorded: strong inhibition"}]}, {"molecule": "miR-223: microRNA mimic; hsa-miR-223 3′-ACCCCAUAAACUGUUUGACUGU-5′ (SEQ ID NO: 5) (listed as RNA, chemistry not given here; listed 3' to 5'; listed as Homo sapiens)", "values": [{"measurement": "luciferase protein expression from Dys 3′UTR reporter", "setting": "[7]", "result": "significantly inhibited"}]}, {"molecule": "miR-320a: microRNA mimic; hsa-miR-320a 3′-AGCGGGAGAGUUGGGUCGAAAA-5′ (SEQ ID NO: 7) (listed as RNA, chemistry not given here; listed 3' to 5'; listed as Homo sapiens)", "values": [{"measurement": "luciferase protein expression from Dys 3′UTR reporter", "setting": "[7]", "result": "significantly inhibited"}]}, {"molecule": "miR-374a: microRNA mimic; hsa-miR-374a 3′-GUGAAUAGUCCAACAUAAUAUU-5′ (SEQ ID NO: 9) (listed as RNA, chemistry not given here; listed 3' to 5'; listed as Homo sapiens)", "values": [{"measurement": "luciferase protein expression from Dys 3′UTR reporter", "setting": "[7]", "result": "significantly inhibited; also recorded: most potent downregulation; also recorded: strong inhibition"}]}, {"molecule": "miR-382: microRNA mimic; hsa-miR-382 3′-GCUUAGGUGGUGCUUGUUGAAG-5′ (SEQ ID NO: 14) (listed as RNA, chemistry not given here; listed 3' to 5'; listed as Homo sapiens)", "values": [{"measurement": "luciferase protein expression from Dys 3′UTR reporter", "setting": "[7]", "result": "significantly inhibited"}]}]}
